In the NIST ThermoML archive (doi:10.1021/je800157v):
Numbers after ± are expanded uncertainties.

Assays:
[1] = xn = mol fraction of the nth substance listed; settings: 101 kPa, Liquid
[2] = 101 kPa, Liquid

| SMILES | mass density ([2]; 288.15 K) | mass density ([2]; 293.15 K) | mass density ([2]; 298.15 K) | mass density ([2]; 303.15 K) | mass density ([2]; 308.15 K) | mass density ([2]; 313.15 K) | further results |
| --- | --- | --- | --- | --- | --- | --- | --- |
| c1ccccc1 [benzene] + CCC(C)O |  |  |  |  |  |  | mass density ([1]; 288.15 K, x2 = 0): 884.25 ± 0.31 kg/m3; mass density ([1]; 293.15 K, x2 = 0): 878.92 ± 0.31 kg/m3; mass density ([1]; 298.15 K, x2 = 0): 873.58 ± 0.32 kg/m3; mass density ([1]; 303.15 K, x2 = 0): 868.23 ± 0.33 kg/m3; mass density ([1]; 308.15 K, x2 = 0): 862.87 ± 0.34 kg/m3; mass density ([1]; 313.15 K, x2 = 0): 857.5 ± 0.35 kg/m3 |
| c1ccccc1 [benzene] | 884.25 ± 0.31 kg/m3 | 878.92 ± 0.31 kg/m3 | 873.58 ± 0.32 kg/m3 | 868.23 ± 0.33 kg/m3 | 862.87 ± 0.34 kg/m3 | 857.5 ± 0.35 kg/m3 |  |
| ClC(Cl)Cl [trichloromethane] | 1498.08 ± 0.92 kg/m3 | 1488.64 ± 0.91 kg/m3 | 1479.15 ± 0.89 kg/m3 | 1469.61 ± 0.88 kg/m3 | 1460.03 ± 0.86 kg/m3 | 1450.41 ± 0.85 kg/m3 |  |
| CCC(C)O (stereo not given) [butan-2-ol] | 810.64 ± 0.55 kg/m3 | 806.59 ± 0.56 kg/m3 | 802.47 ± 0.56 kg/m3 | 798.27 ± 0.57 kg/m3 | 793.97 ± 0.57 kg/m3 | 789.59 ± 0.58 kg/m3 |  |
| CCC(C)O (stereo not given) [butan-2-ol] + ClC(Cl)Cl |  |  |  |  |  |  | mass density ([1]; 288.15 K, x1 = 1): 810.64 ± 0.55 kg/m3; mass density ([1]; 293.15 K, x1 = 1): 806.59 ± 0.56 kg/m3; mass density ([1]; 298.15 K, x1 = 1): 802.47 ± 0.56 kg/m3; mass density ([1]; 303.15 K, x1 = 1): 798.27 ± 0.57 kg/m3; mass density ([1]; 308.15 K, x1 = 1): 793.97 ± 0.57 kg/m3; mass density ([1]; 313.15 K, x1 = 1): 789.59 ± 0.58 kg/m3 |
